Results: US20260356851A1, “TRICYCLIC COMPOUNDS AND USES THEREOF” (HUTCHMED LIMITED, priority 2023, published 2026)

Tests used:
Format in all cases: cell-based
[1] = target: T1, pERK1/2 (Thr202/Tyr204), NCI-1H358 (KRAS G12C) (Homo sapiens, UniProt P01116, G12C); test: Assay of intracellular pERK1/2 (Thr202/Tyr204) phosphorylation in NCI-H358 cells (KRAS G12C); conditions: pERK1/2, 2 days, read-out: NCI-H358 (KRAS G12C) IC50
T1 construct: pERK1/2 HTRF read-out
Experimental: (§1) Example 2: Assay of intracellular pERK1/2 (Thr202/Tyr204)phosphorylation
(§2) 1. Reagents and materials: • pERK1/2 (Thr202/Tyr2O4) HIRE kit, Cisbio, Cat #64ERKPEH; • OptiPlate™-384-well plate, PerkinElmer, Cat #6007299; • 96-well plate, Coming, Cat #353072; • Instrument: EnVision2104, PerkinElmer; • Cell lines: NCI-1H358 (KRAS G12C), ATCC, CRL-5807; PANC-1 (KRAS G121D), ATCC, CRL-1469; NCI-1H441 (KRAS G12V), ATCC, HTB-174.
(§3) 2. Preparation of Reaction Solutions
(§4) • A test compound was dissolved in DMSO, diluted to 200.0 μM and further diluted 3-fold to prepare a series of test compounds at concentrations of 66.7, 22.2, 7.4, 2.5, 0.82, 0.27, 0.09 μM etc. Then 10 μL of the compound at different dilution concentrations was added to 190 μL of a DMEM medium to prepare a 10× test compound; • 1× cell lysis buffer: 4× cell lysis stock solution (provided by the kit) was diluted 4-fold with deionized water, and then 10% 100× blocking stock solution (provided by the kit) was added thereto. • pERK1/2 detection solution (prepared just before use): the pERK1/2 d2 antibody (provided by the kit) and pERK1/2 Cryptate antibody (provided by the kit) were diluted with the detection solution (provided by the kit) at a ratio of 1:1:38.
(§5) • Cells were inoculated into a 96-well plate (100 μL/well) at a density of 10000-12000/well. No cell was inoculated into a negative control well, and only the cell medium was added at 100 μL/well. The plate was placed in a cell incubator at 5% CO2 and 37° C. overnight. • 10 μL of the 10× test compound was added to the 100 μL cell culture 96-well plate; both the positive control well (that is, the control hole without chemical compound treatment) and the negative control well were charged with 10 μL of a 5% DMSO culture solution; and the plate was cultured in a cell incubator at 5% CO2 and 37° C. for 2 days. • The medium in the 96-well plate was removed; 50 μL of the 1× cell lysis buffer was added to each of the wells; the plate was placed in a microplate shaker; and lysis under shaking was carried out at 900 rpm at room temperature for 1 hour. • 16 μL of the lysis buffer in the 96-well plate was taken and transferred to a 384-well plate, followed by centrifugation at 1000 rpm for 30 s; then 4 μL of pERK1/2 detection solution was added to each well, followed by centrifugation at 1000 rpm for 30 s; and the 384-well plate was sealed with a sealing membrane and incubated at 25° C. on a low-speed shaker at 100 rpm in the dark for 2 hours. • The fluorescence value (RFU) of each well was detected on EnVision2104, with an emission wavelength 1 being 665 nm and an emission wavelength 2 being 615 nm.
(§6) Fluorescence ratio=fluorescence value665 nm/fluorescence value615 nm
(§7) Inhibition rate (%)=100−((fluorescence ratio of compound well−fluorescence ratio of negative control well)/(fluorescence ratio of positive control well−fluorescence ratio of negative control well))×100
(§8) wherein: • the fluorescence ratio of compound well refers to the fluorescence ratio of the well containing the test compounds; • the fluorescence ratio of negative control well refers to the fluorescence ratio of the cell-free control well; • the fluorescence ratio of positive control well refers to the fluorescence ratio of the cell well treated with 0.5% DMSO.
(§9) IC50 value: obtained by calculation using XL-Fit 5.0 software.

[2] = target: T2, pERK1/2 (Thr202/Tyr204), PANC-1 (KRAS G121D) (Homo sapiens, UniProt P01116, G12D); test: Assay of intracellular pERK1/2 (Thr202/Tyr204) phosphorylation in PANC-1 cells (KRAS G12D); conditions: pERK1/2, 2 days, read-out: PANC-1 (KRAS G12D) IC50
T2 construct: pERK1/2 HTRF read-out
T2 sequence (P01116 1-188 isoform P01116-2 G12D): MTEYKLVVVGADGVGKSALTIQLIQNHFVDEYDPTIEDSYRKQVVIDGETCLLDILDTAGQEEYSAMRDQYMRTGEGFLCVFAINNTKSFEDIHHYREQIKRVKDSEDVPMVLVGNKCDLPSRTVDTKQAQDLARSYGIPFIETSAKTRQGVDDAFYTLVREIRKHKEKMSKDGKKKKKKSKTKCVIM
Experimental: as §1, §2, §3, §4, §5, §6, §7, §8, §9

[3] = target: T3, pERK1/2 (Thr202/Tyr204), NCI-1H441 (KRAS G12V) (Homo sapiens, UniProt P01116, G12V); test: Assay of intracellular pERK1/2 (Thr202/Tyr204) phosphorylation in NCI-H441 cells (KRAS G12V); conditions: pERK1/2, 2 days, read-out: NCI-H441 (KRAS G12V) IC50
T3 construct: pERK1/2 HTRF read-out
T3 sequence (P01116 1-188 isoform P01116-2 G12V): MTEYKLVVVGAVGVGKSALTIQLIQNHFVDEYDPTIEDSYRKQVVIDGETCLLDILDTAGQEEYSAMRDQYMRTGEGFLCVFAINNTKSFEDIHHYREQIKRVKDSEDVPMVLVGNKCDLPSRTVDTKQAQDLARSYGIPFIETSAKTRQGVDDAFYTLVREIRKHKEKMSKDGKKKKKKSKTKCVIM
Experimental: as §1, §2, §3, §4, §5, §6, §7, §8, §9

T1 sequence (P01116 1-188 isoform P01116-2 G12C): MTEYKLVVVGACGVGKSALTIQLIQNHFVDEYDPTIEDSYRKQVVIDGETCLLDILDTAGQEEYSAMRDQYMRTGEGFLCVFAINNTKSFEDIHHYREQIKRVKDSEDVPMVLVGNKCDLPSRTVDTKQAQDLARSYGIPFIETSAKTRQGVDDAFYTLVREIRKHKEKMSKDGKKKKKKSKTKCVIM

Compound	IC50 [1] [nM]	IC50 [2] [nM]	IC50 [3] [nM]
CC(c1cccnc1N)N1CCOc2nc(-c3cc(N)cc(F)c3C(F)(F)F)c(F)c3nc(OC[C@@H]4CCCN4C)nc1c23 (single isomer, unassigned) [Compound 90, 3-((R or S)-1-(5-(5-amino-3-fluoro-2-(trifluoromethyl)phenyl)-4-fluoro-2-(((S)-1-methylpyrrolidin-2-yl)methoxy)-8,9-dihydro-10H-7-oxa-1,3,6,10-tetraazacyclohepta[de]naphthalen-10-yl)ethyl)pyridin-2-amine]	2	91	6
Cc1nc(N)cc(-c2nc3c4c(nc(OC[C@@]56CCCN5C[C@H](F)C6)nc4c2F)N(C(C)c2cccnc2N)[C@@H](C)CO3)c1C(F)(F)F (stereo partly drawn) [Compound 311]	0.5	6	0.8
CC(c1cccnc1N)N1c2nc(OC[C@@]34CCCN3C[C@H](F)C4)nc3c(F)c(-c4ccc(F)c5sc(N)c(C(N)=O)c45)nc(c23)OC[C@@H]1C (stereo partly drawn) [Compound 327]	> 100	> 100	> 100
CCC(c1cccnc1N)N1CCOc2nc(-c3cc(N)c(F)c(Cl)c3C(F)(F)F)c(F)c3nc(OC[C@@]45CCCN4C[C@H](F)C5)nc1c23 (single isomer, unassigned) [Compound 215, 3-((R or S)-1-(5-(5-amino-3-chloro-4-fluoro-2-(trifluoromethyl)phenyl)-4-fluoro-2-(((2R,7aS)-2-fluorotetrahydro-1H-pyrrolizin-7a(5H)-yl)methoxy)-8,9-dihydro-10H-7-oxa-1,3,6,10-tetraazacyclohepta[de]naphthalen-10-yl)propyl)pyridin-2-amine]	21	> 100	36
Cc1c(C(F)(F)F)c(-c2nc3c4c(nc(OCC5(CN(C)C)CC5)nc4c2F)N(C(C)c2cccnc2N)[C@@H](C)CO3)c2cn[nH]c2c1F (stereo partly drawn) [Compound 396]	< 0.457	6	1
[2H][C@]1(F)CN2CCC[C@@]2(COc2nc3c4c(nc(-c5cc(N)c(F)c(C)c5C(F)(F)F)c(F)c4n2)OCCN3C(C)c2cccnc2N)C1 (single isomer, unassigned) [Compound 170, (*)3-(1-(5-(5-amino-4-fluoro-3-methyl-2-(trifluoromethyl)phenyl)-4-fluoro-2-(((2S or 2R,7aS)-2-fluorotetrahydro-1H-pyrrolizin-7a(5H)-yl-2-d)methoxy)-8,9-dihydro-1OH-7-oxa-1,3,6,10-tetraazacyclohepta[de]naphthalen-10-yl)ethyl)pyridin-2-amine]	0.2	2	0.5
Cc1cc(N)cc(-c2nc3c4c(nc(OC[C@@H]5CCCN5C5COC5)nc4c2F)N(C(C)c2cccnc2N)CCO3)c1C(F)(F)F (single isomer, unassigned) [Compound 160, 3-((R or S)-1-(5-(5-amino-3-methyl-2-(trifluoromethyl)phenyl)-4-fluoro-2-(((S)-1-(oxetan-3-yl)pyrrolidin-2-yl)methoxy)-8,9-dihydro-10H-7-oxa-1,3,6,10-tetraazacyclohepta[de]naphthalen-10-yl)ethyl)pyridin-2-amine]	0.5	> 100	2
Cc1cc(N)cc(-c2nc3c4c(nc(OC[C@H]5CCCN5CCF)nc4c2F)N(C(C)c2cccnc2N)CCO3)c1C(F)(F)F (single isomer, unassigned) [Compound 79, 3-((R or S)-1-(5-(5-amino-3-methyl-2-(trifluoromethyl)phenyl)-4-fluoro-2-(((R)-1-(2-fluoroethyl)pyrrolidin-2-yl)methoxy)-8,9-dihydro-10H-7-oxa-1,3,6,10-tetraazacyclohepta[de]naphthalen-10-yl)ethyl)pyridin-2-amine]	> 100	> 100	> 100
[2H]C1([2H])Oc2nc(-c3cc(N)c(F)c(C)c3C(F)(F)F)c(F)c3nc(OC[C@@]45CCCN4C[C@H](F)C5)nc(c23)N(C(C)c2cccnc2N)C1([2H])[2H] (single isomer, unassigned) [Compound 200, 3-((R or S)-1-(5-(5-amino-4-fluoro-3-methyl-2-(trifluoromethyl)phenyl)-4-fluoro-2-(((2R,7aS)-2-fluorotetrahydro-1H-pyrrolizin-7a(5H)-yl)methoxy)-8,9-dihydro-10H-7-oxa-1,3,6,10-tetraazacyclohepta[de]naphthalen-10-yl-8,8,9,9-d4)ethyl)pyridin-2-amine]	7	63	10
CC(c1cccnc1N)N1CCOc2nc(-c3cc(O)cc4ccc(F)c(F)c34)c(F)c3ncnc1c23 (stereo not drawn) [Compound 22]	38	393	105
CC(c1cccnc1N)N1CCOc2nc(-c3cc(N)cc(Cl)c3C3CC3)c(F)c3nc(OC[C@@]45CCCN4C[C@H](F)C5)nc1c23 (single isomer, unassigned) [Compound 74, 3-((R or S)-1-(5-(5-amino-3-chloro-2-cyclopropylphenyl)-4-fluoro-2-(((2R,7aS)-2-fluorotetrahydro-1H-pyrrolizin-7a(5H)-yl)methoxy)-8,9-dihydro-10H-7-oxa-1,3,6,10-tetraazacyclohepta[de]naphthalen-10-yl)ethyl)pyridin-2-amine]	0.2	4	0.4
CC(c1cccnc1N)N1c2nc(OC[C@@]34CCCN3C[C@H](F)C4)nc3c(F)c(-c4c5c(cc6[nH]ncc46)CCC5=O)nc(c23)OC[C@@H]1C (single isomer, unassigned) [Compound 373]	14	41	25
Cc1cc(N)cc(-c2nc3c4c(nc(OC[C@@]56CCCN5C[C@H](F)C6)nc4c2F)N(C(C)c2cccnn2)CCO3)c1C(F)(F)F (stereo partly drawn) [Compound 121]	> 100	> 100	98
CC(c1cccnc1N)N1CCOc2nc(-c3cc(N)cc(Cl)c3C3CC3)c(F)c3nc(OC[C@@H]4CCCN4C)nc1c23 (stereo partly drawn) [Compound 67]	5	81	8
CC(c1cccnc1N)N1c2nc(OC[C@@]34CCCN3C[C@H](F)C4)nc3c(F)c(-c4cc(N)cc(Cl)c4C4CC4)nc(c23)OC[C@@H]1C (stereo partly drawn) [Compound 305]	0.3	0.3	0.6
[2H]C1([2H])CN(C(C)c2cccnc2N)c2nc(OC[C@@]34CCCN3C[C@H](F)C4)nc3c(F)c(-c4cc(N)cc(C)c4C(F)(F)F)nc(c23)O1 (single isomer, unassigned) [Compound 154, 3-((R or S)-1-(5-(5-amino-3-methyl-2-(trifluoromethyl)phenyl)-4-fluoro-2-(((2R,7aS)-2-fluorotetrahydro-1H-pyrrolizin-7a(5H)-yl)methoxy)-8,9-dihydro-10H-7-oxa-1,3,6,10-tetraazacyclohepta[de]naphthalen-10-yl-8,8-d2)ethyl)pyridin-2-amine]	21	> 100	31
Cc1cc(N)cc(-c2nc3c4c(nc(OC[C@@]56CCCN5C[C@H](F)C6)nc4c2F)N(C(C)c2cccnc2N)CCO3)c1C1CC1 (stereo partly drawn) [Compound 146]	0.8	16	3
